We go through three compounds from US8673854B2, “Prophylactic agent for heart failure” (Calpis Co., Ltd., priority 2007, dated 2014).

What all share (assay type): in vivo, male Wistar rats
Assay [1] has as its system rat left ventricle wall thickening. Briefly: Test 3: effect to suppress left ventricle wall thickening in rats administered with L-NAME. The following applies: compared with L-NAME alone; drinking water with L-NAME 1 g/L plus IPP 0.3 g/L or Enalapril 0.5 mg/L, ad libitum for eight weeks; FIG. 3. As to the method:
(§1) The tripeptide Ile Pro Pro (IPP) was also tested for the suppressive effect against the thickening of the ventricle wall. The test was carried out using three groups of male Wistar rats of seven weeks old (Japan SLC, Inc.), each of which group consist of 9 to 11 rats. After acclimation for a week, the animals received: water with L-NAME (manufactured by Sigma) being dissolved at a concentration of 1 g/L; water with L-NAME and IPP being dissolved at a concentration of 1 g/L and 0.3 g/L respectively; or water with L-NAME and angiotensin converting enzyme (ACE) inhibitor, Enalapril at a concentration of 1 g/L and 0.5 mg/L respectively, ad libitum for eight weeks. The dose of Enalapril was determined such that its activity to inhibit ACE was equivalent to the activity of IPP to inhibit ACE.
The rats were sacrificed by exsanguination under diethylether anesthesia. […] The sliced thin sections were stained with hematoxylin and eosin and the thickness of the left ventricle wall was measured. As for the measurement of the thickness of the ventricle wall, the thickness of a plural of the points for one section, each of which point was considered to have an average thickness, was actually measured with an ocular micrometer under a microscope. The average thickness was defined as the measured value of the section and subjected to statistical analysis. […]

Assay [2] concerns rat right ventricle wall thickening. Description: Test 4: effect to suppress right ventricle wall thickening in rats administered with L-NAME. The following applies: L-NAME 1 g/L plus IPP 0.3 g/L or Enalapril 0.5 mg/L in water, eight weeks; for Normal (right ventricle wall equal to or smaller than reference value) / Thickening Positive (right ventricle wall thicker than reference value of rats without L-NAME): likelihood-ratio test, IPP group p < 0.01. As to the method:
In order also to check the effect of the tripeptide Ile Pro Pro (IPP) to suppress the thickening of the right ventricle wall, a test was carried out in the same manner as in Test 3, and measurement and evaluation were made.
as §1, with “The” for “The tripeptide Ile Pro Pro (IPP) was also tested for the suppressive effect against the thickening of the ventricle wall. The”, “12” for “11”, “animal” for “animals”
The rats were sacrificed by exsanguination under diethylether anesthesia. The heart was enucleated and then fixed with 10% neutral buffered formalin solution. Annularly-shaped tissue samples were prepared from the fixed heart by horizontally excising the lower part of the atria such that the right ventricle, septum, left ventricle, and coronary artery were included. The specimen were embedded in paraffin and cut into thin sections with a thickness of 3.0 to 3.5 μm using a microtome. Two to five sections per rat were prepared. Slices of the thin sections were stained with hematoxylin and eosin and the thickness of the right ventricle wall was measured. As for the measurement of the thickness of the ventricle wall, the thickness of a plural of the points for one section, each of which point was considered to have an average thickness, was actually measured with an ocular micrometer under a microscope. The average thickness was defined as the measured value of the section and the thickness of the ventricle wall of each individual was determined. The measurement and evaluation of the thickness was carried out by a pathologist who was not informed of the name of each sample.
The evaluation of the thickening of the ventricle wall involved the measurement of the thickness of the ventricle wall of six rats of the same age in weeks, which rats were fed with general tap water with no L-NAME being added. The average of those was defined as a reference value. In cases where the thickness of its ventricle wall was larger than the reference value, a rat was defined as one with the thickening, whereas in cases where the thickness of its ventricle wall was equal to or smaller than the reference value, a rat was considered to be normal. Using the number of the rats with the thickening and the normal rats, comparisons by likelihood-ratio test were made.

Assay [3] relates to rat heart septal wall thickening. Briefly: Test 5: effect to suppress heart septal wall thickening in rats administered with L-NAME. The following applies: compared with L-NAME alone; drinking water with L-NAME 1 g/L plus IPP 0.3 g/L or Enalapril 0.5 mg/L, ad libitum for eight weeks; FIG. 4.
Assay [4] relates to rat left ventricle wall thickening. Description: Test 1: effect to suppress left ventricle wall thickening in rats administered with L-NAME. Conditions: compared with L-NAME alone; drinking water with L-NAME 1 g/L plus VPP 0.3 g/L or Enalapril 0.5 mg/L, ad libitum for eight weeks; FIG. 1. As to the method: The tripeptide Val Pro Pro (VPP) was tested for the effect of suppressing the thickening of the left ventricle. The test was carried out using three groups of male Wistar rats of seven weeks old (Japan SLC, Inc.), each of which group consisted of 9 to 12 rats. […] The dose of Enalapril was determined such that its activity to inhibit ACE was equivalent to VPP's.
The rats were sacrificed by exsanguination under diethylether anesthesia. […] The sliced thin sections were stained with hematoxylin and eosin and the thickness of the left ventricle wall was measured. As for the measurement of the thickness of the ventricle wall, the thickness of a plural of the points per one section, each of which point was considered to have an average thickness, was actually measured with an ocular micrometer under a microscope. The average thickness was defined as the measured value of the section and subjected to statistical analysis. […]

Assay [5] deals with rat right ventricle wall thickening. Description: Test 2: effect to suppress right ventricle wall thickening in rats administered with L-NAME. Conditions: compared with L-NAME alone; drinking water with L-NAME 1 g/L plus VPP 0.3 g/L or Enalapril 0.5 mg/L, ad libitum for eight weeks; FIG. 2.

For Ile Pro Pro [IPP], in assay [1], the “thickness of the left ventricle wall” value was “showed a decrease in the thickness of the left ventricle wall”. For the same compound, in assay [2], the “suppression of the thickening of the right ventricle wall (result in words)” value is “suppressed the thickening of the right ventricle wall”, the “Normal (right ventricle wall equal to or smaller than reference value)” value was found to be 9 rats and the “Thickening Positive (right ventricle wall thicker than reference value of rats without L-NAME)” value stood at 0 rats. Moreover, the “thickness of the heart septal wall” value in assay [3] is “showed a decrease in the thickness of the heart septal wall”.
Consider `CCOC(=O)[C@H](CCc1ccccc1)N[C@@H](C)C(=O)N1CCC[C@H]1C(=O)O` [Enalapril], for which the “thickness of the left ventricle wall” value in assay [4] is “did not exhibit the effect”. Moreover, in assay [5], the “thickness of the right ventricle wall” value is “did not show such an effect”. Further, the “thickness of the left ventricle wall” value in assay [1] is reported as “did not exhibit such an effect”. In assay [2], the “suppression of the thickening of the right ventricle wall (result in words)” value is reported as “did not exhibit such an effect”, the “Normal (right ventricle wall equal to or smaller than reference value)” value was 8 rats and the “Thickening Positive (right ventricle wall thicker than reference value of rats without L-NAME)” value was 1 rat^ rats. Further, the “thickness of the heart septal wall” value in assay [3] is “did not exhibit the effect”.
As for Val Pro Pro [VPP], the “thickness of the left ventricle wall” value in assay [4] is listed as “showed a decrease in the thickness of the left ventricle wall”. The “thickness of the right ventricle wall” value in assay [5] is “showed a decrease in the thickness of the right ventricle wall”.
